The subject of series [1] is ICAM-1 expression in HMEC-1 cells. In words: LPS-induced ICAM-1 expression in HMEC-1 cells, flow cytometry. It is filed as cell-based, human. The procedure: (3) Screening candidate molecules with the strongest ICAM-1 inhibitory activity by simulating the physiological model of inflammation that human microvascular endothelial cells (HMEC-1) expressing cell adhesion molecules (ICAM-1) mediate lymphocytes to penetrate blood vessels to infiltrate the damaged tissues. The specific steps are as follows:
1) Culture of HMEC-1 cells: HMEC-1 cells are cultured in MCDB131 medium (U.S. Sigma) that contain 10% fetal bovine serum (FBS, Zhejiang Tianhang Biotechnology Co., Ltd.), double antibody (100 U/mL penicillin and 100 μg/mL streptomycin), 1 μg/mL hydrocortisone (Sangon Biotech (Shanghai) Co., Ltd.) and 10 ng/mL human recombinant growth factor (hEGF, Sangon Biotech (Shanghai) Co., Ltd.) at 37° C., 5% CO2, and 100% RH.
2) HMEC-1 cells are inoculated into a 24-well plate, and cultured in a cell incubator at 37° C., 5% CO2, and 100% RH. When the cells grow to 80% abundance, different concentrations of drugs are added for 3 h (1 μM Celastrol as a positive control drug). At the end of treatment, 1 μg/mL LPS is added to activate the NF-κB signaling pathway for 12 hours. After activation, the supernatant medium is discarded, and washed three times with PBS, and 100 μL of 0.25% pancreatin (containing 0.5 mM EDTA) is added to digest in a 37° C. incubator for 3 min. When most of cells are shed, 150 μL of MCDB131 complete medium is added to terminate the digestion, shaken for 3 min, then cells are transferred to a V-shaped 96-well plate (Corning), centrifuged at 4° C., 3000 rpm for 3 min to precipitate cells. Then the supernatant medium is discarded, 100 μL of pH=7.4 buffer A (PBS+0.5% BSA+1 mM MgCl2) is added to each well, to wash once, centrifuged at 4° C., 3000 rpm for 3 min, and the buffer A is aspirated. To each well, 100 μL of PBS solution containing 5% bovine serum albumin is added, and shaken and blocked at 120 rpm for 30 min at room temperature; after blocking, centrifuged at 4° C. and 2000 rpm for 3 min, and the supernatant is discarded, 20 μl of buffer A containing 5 μg/mL of primary antibody anti-ICAM-1 antibody LB-2, shaken and incubated at room temperature at 120 rpm for 1 h, using the buffer A without adding anti-ICAM-1 antibody LB-2 as the negative control. By detecting anti-ICAM-1 fluorescence value by flow cytometry, the expression of ICAM-1 protein in HMEC-1 cells is detected indirectly. Three duplicate wells are established for each concentration. PBS is set as a blank control, 1 uM of Celastrol is set as a positive control, to analyze the inhibitory effect of different concentrations of drugs on the expression level of ICAM-1.
1) Culture of HMEC-1 cells: HMEC-1 cells are cultured in MCDB131 medium (U.S. Sigma) that contain 10% fetal bovine serum (FBS, Zhejiang Tianhang Biotechnology Co., Ltd.), double antibody (100 U/ml penicillin and 100 μg/ml streptomycin), 1 μg/ml hydrocortisone (Sangon Biotech) and 10 ng/ml human recombinant growth factor (hEGF, Sangon Biotech) at 37° C., 5% CO2, and 100% RH.
HMEC-1 cells are inoculated into a 24-well plate, and cultured in a cell incubator at 37° C., 5% CO2, and 100% RH. When the cells grow to 80% abundance, different concentrations of drugs are added for 3 h (1 μM Celastrol as a positive control drug). At the end of treatment, 1 μg/mL LPS is added to activate the NF-κB signaling pathway for 12 hours. After activation, the supernatant medium is discarded, and washed three times with PBS, and 100 μL of 0.25% pancreatin (containing 0.5 mM EDTA) is added to digest in a 37° C. incubator for 3 min. When most of cells are shed, 150 μL of MCDB131 complete medium is added to terminate the digestion, shaken for 3 min, then cells are transferred to a V-shaped 96-well plate (Corning), centrifuged at 4° C., 3000 rpm for 3 min to precipitate cells. Then the supernatant medium is discarded, 100 μL of pH=7.4 buffer A (PBS+0.5% BSA+1 mM MgCl2) is added to each well, to wash once, centrifuged at 4° C., 3000 rpm for 3 min, and the buffer A is aspirated. […]

Series [2] deals with high-fat-induced obese mice. In words: GA-03 in high-fat-induced obese mouse model, intraperitoneal. The format is in vivo, C57BL/6 mice. The method, then: Animals are fed with 60% calorie high-fat diets (purchased from Bio-medicine) for 14 consecutive weeks. […] When the blood glucose is greater than 11 mmol/L and the body weight is greater than 42 g, the administration is started. […] The injection volume is […]. In addition, a vehicle (25 μL DMSO) is established. […] Mice in the blank group and GA-02 treatment group underwent pathological anatomy, to observe the changes in organs before and after administration. Samples are taken to prepare pathological sections.
The model is constructed by feeding high-fat diets to C57BL/6 male mice for 14 weeks, as shown in FIGS. 22A-22D, obese model mice with a body weight greater than 42 g and blood glucose level higher than 11 mmol/L. Model mice are grouped by blood glucose and body weight. […]

In a further series the test system is mildly obese mice. In words: GA-03 in mildly obese mouse model, intraperitoneal. The format is in vivo, C57BL/6 mice. Conditions: intraperitoneal injection. The procedure: Animals are fed with common diets (purchased) for 14 consecutive weeks. […] When the body weight is greater than 30 g, the administration is started. […] The injection volume is 25 μL per day.

For the next series, the system named is lean mice. The settings on record: mouse, in vivo, ip.
Series [3] deals with NF-κB signaling in HEK293 cells. In words: NF-κB luciferase reporter gene system. It is filed as cell-based. The settings on record: Homo sapiens, HEK293, read-out: inhibition of the fluorescence signal (NF-κB luciferase reporter). The method, then:
FIGS. 10A-10C show the inhibition verification effect chart of GA-02 in Example 5, where FIG. 10A: GA-02 inhibited LPS-induced ICAM-1 expression activity. The inflammatory pathway of HMEC-1 cell was activated by 1 μg/mL LPS, to determine the effect of Celastrol and GA-02 on the expression of ICAM-1 induced by LPS. FIG. 10B: The effect of GA-02 on NF-κB signaling. The NF-κB luciferase reporter plasmid was used to transfect HEK293 cells, and the effects of Celastrol and GA-02 on the NF-κB activity induced by TNF-α were determined; FIG. 10C: qRT-PCR was used to detect mRNA relative expressions of IL-1β, TNF-α, IL-6 and MCP-1.
ICAM-1 is a downstream effector molecule regulated by NF-κB signaling pathway, and NF-κB plays an important role in regulating the expression of ICAM-1 gene. Celastrol can inhibit the activation of the LPS-induced IKK/NF-κB signaling pathway. In order to validate that GA-02 functions through the IKK/NF-κB signaling pathway, we constructed an NF-κB luciferase reporter gene system to validate the inhibitory activity of Celastrol and GA-02 on the luciferase reporter gene. […] In addition, both Celastrol and GA-02 could down-regulate the mRNA transcription levels of inflammatory factors IL-1β, TNF-α, IL-6 and MCP-1 activated by LPS.

A further series relates to mice. Conditions: cited from earlier work.
For series [4] the following is noted: in vivo; cited from earlier work.
Another series relates to normal rats. Conditions: cited from earlier work.
For series [5], the system named is mice with hereditary diabetes. Conditions: cited from earlier work.
Setting [6] is: high-dose (8 mg/kg) i.p., second day.
The mark [7] stands for this setting: high-dose (8 mg/kg) i.p., third day.
[8] abbreviates: low-, medium- and high-dose (2, 4, 8 mg/kg) i.p.

Method for lean mice: Six-week-old SPF-grade C57BL/6 mice (purchased from Hubei Provincial Center for Disease Control and Prevention) are fed in SPF animal house at a room temperature of 22° C., 4 mice per cage. Animals are fed with common diets (purchased) for 2 consecutive weeks. Mice are free to take food and the padding is changed every two days, and the body weights and blood glucose are monitored every week. When the body weight is greater than 22 g, the administration is started. The drug is dissolved in DMSO solvent and administered by intraperitoneal injection. The injection volume is 25 μL per day. In addition, a vehicle and positive drug control are established. The food intake and body weight changes of mice in each group are measured every day. On Days 1 and 21, the blood routine and blood biochemical parameters are monitored. At the same time, the glucose tolerance test (GTT) and insulin tolerance test (ITT) are carried out.

On to “11-dicarbonyl-12-ene-2α,3β-dihydroxy-oleanane [GA-03]”, for which, in [1], the “anti-inflammatory activity compared with reference compounds” value was “basically equivalent to that of GA-02 and superior to 18β-glycyrrhetinic acid”. In addition, the “body weight reduced by” value was found to be 33.80±2.95% in [2] (high dose 8 mg/kg i.p., three weeks); 20.40±1.89% in series [2] (low dose 2 mg/kg i.p., three weeks); 27.63±3.39% in series [2] (medium dose 4 mg/kg i.p., three weeks). Further, the “body weight after three weeks of administration” value in [2] (high dose 8 mg/kg i.p., from 47.49±0.97 g) was determined as 31.45 ± 1.81 g; in series [2] (low dose 2 mg/kg i.p., from 47.11±1.32 g), 37.49 ± 1.28 g; in series [2] (medium dose 4 mg/kg i.p., from 46.94±1.41 g), 33.99 ± 2.30 g. The “liver function indexes AST and ALT vs vehicle control group” value in [2] (high-dose (8 mg/kg) i.p.) was “significantly lower”. The “average daily food intake” value is 0.65 ± 0.02 g in [2] (high-dose (8 mg/kg) i.p., first day of administration, day 0: 3.14±0.40 g); 0.57 ± 0.01 g in series [2] (setting [6]); 0.66 ± 0.06 g in [2] (setting [7]). Further, the body weight in series [2] (high-dose (8 mg/kg) i.p., first day, from 47.49±0.97 g) amounted to 46.18 ± 0.95 g; in series [2] (setting [6]), 44.74 ± 0.76 g; in [2] (setting [7]) it was 43.13 ± 0.65 g. Further, the “lipid droplets in the liver (oil red O and H&E staining)” value in series [2] (high-dose (8 mg/kg) i.p., three weeks) is “completely disappeared”. The “effect on appetite suppression and weight reduction” value is “strong effect” in series [2] (intraperitoneal injection, obese mice) and “obvious effect” in the series on mildly obese mice. The “fasting blood glucose levels” value in series [2] (setting [8]) is “reduce to a normal level”. Moreover, in series [2] (setting [8]), the “weights of liver and epididymal fat compared to the vehicle control group” value is “decrease in a dose-dependent manner”. The “blood glucose tolerance (GTT) and insulin tolerance (ITT)” value in series [2] (low-, medium- and high-dose groups, i.p.) is given as “significantly improved”. The “effect on the food intake and body weight” value in the series on lean mice is “no effect”.
In the case of `CC1(C)[C@@H](O)CC[C@]2(C)[C@H]3C(=O)C=C4[C@@H]5C[C@@](C)(C(=O)O)CC[C@]5(C)CC[C@@]4(C)[C@]3(C)CC[C@@H]12` [18-β-glycyrrhetinic acid, reference compound], the “ICAM-1 inhibitory activity among the candidate triterpene natural products” value in [1] (HMEC-1, 1 μg/mL LPS, FIG. 3) is on record as “best ICAM-1 inhibitory activity”.
As to `CC1=C(O)C(=O)C=C2C1=CC=C1[C@@]2(C)CC[C@@]2(C)[C@@H]3C[C@](C)(C(=O)O)CC[C@]3(C)CC[C@]12C` [Celastrol], in [3], the inhibition at 1 µM worked out at 70%. In the series with mice (dose of 1 mg/kg), the “toxicity to the brains, hearts and livers” value was “serious toxicity”. Besides, the lethality rate in the series with mice (dose of 4 mg/kg) was 40%. Moreover, the bioavailability in [4] was 17.06%.
Take `C[C@H]1[C@H](C)CC[C@]2(C(=O)O)CC[C@]3(C)C(=CC[C@@H]4[C@@]5(C)C[C@@H](O)[C@H](O)C(C)(C)[C@@H]5CC[C@]43C)[C@H]12` [corosolic acid]: the blood glucose lowering entry (in the series on normal rats; in series [5]) was “significant effect of lowering blood glucose” in each case.

The record behind these values is patent US20220112149A1, “DRUG DESIGN METHOD ASSOCIATED WITH NATURAL PRODUCTS, PENTACYCLIC TRITERPENOID COMPOUND, PREPARATION METHOD AND APPLICATIONS THEREOF” (Huazhong Agricultural University, priority 2020, published 2022).
